In patent US20110257204A1, “Penciclovir or Famciclovir for Treatment of Recurrent Genital Herpes with a One-Day Application” (priority 2005, published 2011):
Like-named read-outs stand apart in the source and are kept apart here.

Key:
[1] = patients receiving famciclovir in earlier studies; cited from earlier work
[2] = tested on: recurrent genital herpes lesions; assay type: in vivo, human; conditions: for Time to healing of all lesions (median) / Proportion of aborted lesions: ITT; for Time to healing of all lesions (median): aborted lesions assigned time to healing of zero; for Time to healing of all lesions (median) / Proportion of aborted lesions / Time to healing of non-aborted lesions (median): famciclovir 1,000 mg b.i.d. for one day; for Hazard ratio, time to healing of non-aborted lesions: famciclovir 1,000 mg b.i.d. one day vs placebo
Description: The multi-center, multi-country, randomized, double-blind parallel-group, placebo controlled study is conducted to assess the efficacy and safety of a patient-initiated one-day treatment with famciclovir ([…]) 1,000 mg, twice a day, in patients with recurrent genital herpes. Approximately 450 eligible patients are randomized in a 1:1 ratio to receive either famciclovir (1,000 mg, twice a day) or matching placebo for one day. Patients are instructed to obtain a viral sample and initiate treatment within six hours of prodrome and/or recurrence of genital herpes lesions. All patients are required to return for clinic visits for observation of lesions on Days 2 and 3. Patients with lesions will continue with clinic visits on Days 4 and 5, then every other day until it is deemed that lesion healing has occurred however not to exceed Day 14. The following Table 1 represents the study design. Each patient receives either Famciclovir 2,000 mg [1,000 mg (4×250 mg capsules)] orally or placebo (4×250 mg matching placebo capsules) orally twice in one day. Study medication is to be administered twice in one day (during normal waking hours). One-day equals to 24 hours, if the patent starts a first dose in the PM the second should be taken upon waking in the AM. The first dose is taken within six hours of prodrome and/or genital herpes lesion occurrence. Within 6 hours of recurrence of either genital herpes symptom onset and/or lesion and prior to initiating therapy, patients obtain a viral sample for PCR at Visit 1. The sample is brought to the clinic at Visit 2. Patients maintain a diary to assess and record appearance/stage and location of lesion. From Visit 2 onwards, physicals are performed by clinician who examines genitalia for herpes lesions. Patients with lesions will continue with clinic visit on Days 4 (Visit 5) and 5 (Visit 6) then every other day until clinician investigator deems that the lesion healing has occurred however not to exceed Day 14. Should patients only experience symptoms, without onset of herpes lesion, these patients will return for clinic visits until resolution of symptoms. The primary efficacy variable refers to the investigator-assessed time to healing (re-epithelization, erythema may be present) of all non-aborted genital herpes lesions from the time of the first dose of study medication. Non-aborted lesions refer to all lesions requiring re-epithelization: lesions which undergo vesicular, ulcer/soft crust, hard crust formation. […] Primary efficacy variable is analyzed using the proportional hazards model, with treatment, gender and study center as explanatory variables, for patients over the modified ITT population. The Efron approximate likelihood method is used for resolution of ties. The 95% confidence intervals for the hazard ratio and median times to healing is calculated. The time to healing based on investigator-assessment (with aborted lesions assigned a time of zero) is analyzed on the PCR-positive and the ITT populations. A proportional hazards model is used in analysis, with treatment, gender, and study center as explanatory variables. The Efron approximate likelihood method is used for resolution of ties. A 95% confidence interval for the hazard ratio and median times to healing is calculated. Covariates and interactions listed for the primary efficacy variable are assessed separately by adding their terms into the proportional hazards model. The time to resolution of each symptom, as well as the time to resolution of all symptoms, will be analyzed using a proportional hazards model with treatment, gender, and study center as explanatory variables, over the ITT population. The proportion of patients reporting each symptom is presented descriptively, and compared between treatments using the Chochran-Mantel-Haenszel 9CHM) test, stratified by gender and study center, over the ITT population. […]

[3] = regardless of the dose given; cited from earlier work
[4] = tested on: recurrent genital herpes lesions; conditions: previous trial; clinic-initiated treatment, low dose 125 mg twice a day for five days; cited from earlier work

CC(=O)OCC(CCn1cnc2cnc(N)nc21)COC(C)=O [famciclovir, 9-(4-acetoxy-3-acetoxymethylbut-1-yl)-2-aminopurine]
Most commonly reported adverse events [1]: headache and nausea
Time to healing of all lesions (median) [2]: 3.5 days
Time to healing of all lesions (median) ([2]; listed as Famciclovir): 4.3 days
Proportion of aborted lesions [2]: 23.3%
Proportion of aborted lesions ([2]; listed as Famciclovir): 23.3%
Time to healing of non-aborted lesions (median) ([2]; Modified ITT, oral, patient-initiated within 6 hours): 4.3 days
Hazard ratio, time to healing of non-aborted lesions ([2]; Modified ITT, proportional hazards model): 1.64
Time to healing of non-aborted lesions (median) ([2]; Per Protocol): 4.3 days
Hazard ratio, time to healing of non-aborted lesions ([2]; Per Protocol): 1.72
Reduction of median time to healing of recurrent genital herpes lesions compared to placebo ([2]; famciclovir 1,000 mg twice a day, one day, immunocompetent patients, non-aborted lesions): two
Bioavailability [3]: 77%
Hazard ratio between famciclovir and placebo for time to healing [4]: 1.48
